ChEMBL document CHEMBL1201862, “PubChem BioAssay data set” (2004)
Activity calls are given as the source filed them. No stated cut-off is given here; in the data, actives have a measured IC50 and inactives only a lower limit.

Legend:
Type in all cases: functional
[1] = biological target: T1, Sentrin-specific protease 7 (Homo sapiens, UniProt Q9BQF6);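 further: Luminescence-based dose-response confirmation of ultra-high-throughput screening hits, measuring inhibition of SENP7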
T1 sequence (Q9BQF6 whole entry): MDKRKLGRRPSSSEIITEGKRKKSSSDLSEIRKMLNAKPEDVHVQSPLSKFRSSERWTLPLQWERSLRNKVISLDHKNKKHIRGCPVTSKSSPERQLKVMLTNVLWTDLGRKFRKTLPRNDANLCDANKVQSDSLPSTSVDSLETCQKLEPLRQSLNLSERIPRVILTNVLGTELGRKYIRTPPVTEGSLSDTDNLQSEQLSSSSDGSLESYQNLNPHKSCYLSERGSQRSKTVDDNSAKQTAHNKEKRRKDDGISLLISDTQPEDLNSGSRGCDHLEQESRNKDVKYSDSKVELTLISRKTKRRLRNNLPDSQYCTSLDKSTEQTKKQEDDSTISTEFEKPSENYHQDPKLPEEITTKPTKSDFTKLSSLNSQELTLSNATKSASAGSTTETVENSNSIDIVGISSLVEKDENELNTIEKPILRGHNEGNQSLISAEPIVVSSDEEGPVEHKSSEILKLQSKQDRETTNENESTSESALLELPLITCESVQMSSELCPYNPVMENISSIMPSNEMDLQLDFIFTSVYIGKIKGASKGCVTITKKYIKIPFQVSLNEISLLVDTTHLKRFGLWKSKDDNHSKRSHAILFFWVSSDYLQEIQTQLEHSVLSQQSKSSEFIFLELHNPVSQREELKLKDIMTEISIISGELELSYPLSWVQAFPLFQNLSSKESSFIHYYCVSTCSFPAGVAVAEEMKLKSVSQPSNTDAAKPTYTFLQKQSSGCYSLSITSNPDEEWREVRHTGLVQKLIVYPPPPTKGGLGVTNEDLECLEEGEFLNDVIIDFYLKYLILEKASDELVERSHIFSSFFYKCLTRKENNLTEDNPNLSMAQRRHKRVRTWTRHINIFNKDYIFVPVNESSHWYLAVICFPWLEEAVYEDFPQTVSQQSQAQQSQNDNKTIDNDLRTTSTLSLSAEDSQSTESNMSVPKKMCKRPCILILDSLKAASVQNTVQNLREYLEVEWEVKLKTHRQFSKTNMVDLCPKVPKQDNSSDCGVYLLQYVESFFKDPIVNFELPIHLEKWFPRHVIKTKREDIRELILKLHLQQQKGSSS

[2] = biological target: T2, Sentrin-specific protease 8 (Homo sapiens, UniProt Q96LD8);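 further: luminescence read-out of SENP8 inhibition, dose-response confirmation following an ultra-high-throughput screen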
T2 sequence (Q96LD8 whole entry): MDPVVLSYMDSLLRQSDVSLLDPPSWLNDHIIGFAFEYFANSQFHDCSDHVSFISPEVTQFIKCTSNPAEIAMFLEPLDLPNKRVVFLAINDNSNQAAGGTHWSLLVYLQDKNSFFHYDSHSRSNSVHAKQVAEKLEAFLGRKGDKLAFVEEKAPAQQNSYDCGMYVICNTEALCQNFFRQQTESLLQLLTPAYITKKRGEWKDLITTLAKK

[3] = biological target: T3, Sentrin-specific protease 6 (Homo sapiens, UniProt Q9GZR1);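 further: Luminescence-based dose-response confirmatory assay of SENP6 inhibition, following up an ultra-high-throughput screen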
T3 sequence (Q9GZR1 whole entry): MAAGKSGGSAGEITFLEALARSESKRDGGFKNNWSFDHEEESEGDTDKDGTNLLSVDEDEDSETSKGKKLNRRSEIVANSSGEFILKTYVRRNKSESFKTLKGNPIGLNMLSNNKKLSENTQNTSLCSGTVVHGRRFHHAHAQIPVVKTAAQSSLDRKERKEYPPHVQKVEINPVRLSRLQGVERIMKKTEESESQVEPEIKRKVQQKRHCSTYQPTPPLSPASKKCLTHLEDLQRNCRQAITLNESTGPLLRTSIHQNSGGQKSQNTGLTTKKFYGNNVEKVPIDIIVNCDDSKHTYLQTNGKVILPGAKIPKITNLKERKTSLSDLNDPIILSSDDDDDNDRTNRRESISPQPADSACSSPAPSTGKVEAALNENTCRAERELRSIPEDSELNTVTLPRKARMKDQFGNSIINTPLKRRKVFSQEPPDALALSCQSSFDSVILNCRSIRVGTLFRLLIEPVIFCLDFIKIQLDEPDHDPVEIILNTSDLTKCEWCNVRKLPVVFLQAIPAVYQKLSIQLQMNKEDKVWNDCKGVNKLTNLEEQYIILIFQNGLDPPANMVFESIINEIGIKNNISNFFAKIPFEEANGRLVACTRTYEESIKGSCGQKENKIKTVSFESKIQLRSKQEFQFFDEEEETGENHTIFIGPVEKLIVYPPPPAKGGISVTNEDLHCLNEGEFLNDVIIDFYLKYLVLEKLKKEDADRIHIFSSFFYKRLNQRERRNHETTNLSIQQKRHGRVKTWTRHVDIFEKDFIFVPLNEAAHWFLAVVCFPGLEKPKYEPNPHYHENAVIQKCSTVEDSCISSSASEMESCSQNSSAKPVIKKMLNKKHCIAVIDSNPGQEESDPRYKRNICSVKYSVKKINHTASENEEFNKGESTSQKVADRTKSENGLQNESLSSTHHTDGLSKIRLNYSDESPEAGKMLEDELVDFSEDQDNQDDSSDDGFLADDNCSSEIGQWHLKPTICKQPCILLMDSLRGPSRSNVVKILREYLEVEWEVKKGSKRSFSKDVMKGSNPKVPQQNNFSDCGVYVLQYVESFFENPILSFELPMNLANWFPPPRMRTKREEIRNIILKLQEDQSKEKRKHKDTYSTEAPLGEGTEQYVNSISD

Caspase-3 = biological target: T4, Caspase-3 (Homo sapiens, UniProt P42574);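 further: Dose-response selectivity test against caspase-3 for candidate inhibitors of sentrin-specific proteases (SENPs)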
T4 sequence (P42574 whole entry): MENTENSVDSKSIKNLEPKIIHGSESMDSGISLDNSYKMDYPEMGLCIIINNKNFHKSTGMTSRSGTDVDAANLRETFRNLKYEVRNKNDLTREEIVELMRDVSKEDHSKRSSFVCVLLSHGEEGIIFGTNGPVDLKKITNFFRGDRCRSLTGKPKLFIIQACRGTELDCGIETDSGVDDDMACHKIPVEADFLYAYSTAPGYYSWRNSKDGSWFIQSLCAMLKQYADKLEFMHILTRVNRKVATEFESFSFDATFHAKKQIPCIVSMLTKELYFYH

Measured: IC50

Nc1c(N2CCCC2)cc(Cl)c2nonc12
active: [1] 4.09 µM | [2] 4.09 µM | [3] 3.02 µM | Caspase-3 9.05 µM

O=C(NNc1cc(N2CCOCC2)nc(N2CCOCC2)n1)c1ccc([N+](=O)[O-])cc1
active: [1] 6.14 µM | [2] 6.99 µM | [3] 6.72 µM | Caspase-3 32.4 µM

Oc1ccc(/N=C/c2ccc(OCc3ccccc3)cc2)cc1
active: [1] 14.6 µM | [2] 24.1 µM | [3] 16.4 µM | Caspase-3 14.3 µM
